Measurements as given in patent publication US20060223837A1 (priority 2005, published 2006).

target: T1, human VR1 (Homo sapiens, UniProt Q8NER1); test: Human VR1 functional assay (FLIPR intracellular Ca2+); type: cell-based; conditions: inhibition of capsaicin response, 1 μM
T1 construct: expressed in transfected cells; host or cells: HEK293
Experimental: The functional activity of the test compounds was determined by measuring changes in intracellular calcium concentration using a Ca^2+-sensitive fluorescent dye and FLIPR™ technology. Increases in Ca^2+ concentration were readily detected upon challenge with capsaicin. HEK293 Cells expressing human VR1 were grown on poly-D-lysine coated 384 well black-walled plates (BD 354663) and 1 day later loaded with Calcium 3 Dye for 35 min at 37 C, 5% CO2 and then for 25 min at room temperature, and subsequently tested for agonist-induced increases in intracellular Ca^2+ levels using FLIPR™ technology. Cells were challenged with test compounds (at varying concentrations, which are indicated in parentheses in the heading of the table below) and intracellular Ca^2+ was measured for 5 min prior to the addition of capsaicin to all wells to achieve a final concentration of eliciting an approximate 80% maximal response ([…]). EC50 or IC50 values were determined from dose-response studies. Curves were generated using the average of quadruplicate wells for each data point.

T1 sequence (Q8NER1 whole entry): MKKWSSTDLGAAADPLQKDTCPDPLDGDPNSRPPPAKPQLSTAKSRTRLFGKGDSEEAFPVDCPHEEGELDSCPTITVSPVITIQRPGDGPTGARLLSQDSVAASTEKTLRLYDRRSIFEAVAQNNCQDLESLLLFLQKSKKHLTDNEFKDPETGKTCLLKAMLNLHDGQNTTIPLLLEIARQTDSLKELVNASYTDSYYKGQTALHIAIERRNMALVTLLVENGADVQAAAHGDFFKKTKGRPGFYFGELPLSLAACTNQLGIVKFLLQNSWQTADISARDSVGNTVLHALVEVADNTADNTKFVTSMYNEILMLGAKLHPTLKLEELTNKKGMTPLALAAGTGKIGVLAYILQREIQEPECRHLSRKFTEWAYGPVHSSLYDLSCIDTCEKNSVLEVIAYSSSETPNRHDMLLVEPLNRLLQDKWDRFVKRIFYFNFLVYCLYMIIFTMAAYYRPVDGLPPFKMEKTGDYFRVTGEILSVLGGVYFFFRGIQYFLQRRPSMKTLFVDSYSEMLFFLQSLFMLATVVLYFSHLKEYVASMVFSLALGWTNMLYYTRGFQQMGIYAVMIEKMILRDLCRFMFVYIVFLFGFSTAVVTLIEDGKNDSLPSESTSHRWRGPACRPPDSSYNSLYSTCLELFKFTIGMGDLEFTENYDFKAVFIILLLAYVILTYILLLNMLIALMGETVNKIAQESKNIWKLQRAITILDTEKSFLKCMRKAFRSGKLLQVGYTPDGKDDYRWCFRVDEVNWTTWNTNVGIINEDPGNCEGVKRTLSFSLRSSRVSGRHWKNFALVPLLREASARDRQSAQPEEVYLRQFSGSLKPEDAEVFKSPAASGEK

| Structure (SMILES) | h % I (1 μM) |
| --- | --- |
| Cc1cc(NC(=O)CCc2ccc([S+]([O-])C(F)(F)F)cc2)cnc1-n1cnc(Cl)c1Cl (stereo not shown) [Cpd 273] | 36% |
| Cc1cc(NC(=O)/C=C/c2ccc([S+]([O-])C(F)(F)F)cc2)cnc1-n1cnc(Cl)c1Cl (stereo not shown) [Cpd 274] | 18% |
| Cc1cc(NC(=O)/C=C/c2ccc(SC(F)(F)F)cc2)cnc1-n1cnc(Cl)c1Cl [Cpd 275] | 16% |
| Cc1cc(NC(=O)/C=C/c2ccc(C(F)(F)F)cn2)cnc1-n1cnc(Cl)c1Cl [Cpd 276] | 19% |
| Cc1cc(NC(=O)CCc2ccc(C(F)(F)F)cn2)cnc1-n1cnc(Cl)c1Cl [Cpd 278] | 36% |
| O=C(CCc1ccc(F)cc1)Nc1ccc(-n2ccnc2)c(C(F)(F)F)c1 [Cpd 279] | 30% |
| Cc1cc(NC(=O)CCc2ccc(F)cc2)cnc1-n1cnc(Cl)c1Cl [Cpd 280] | 16% |

Further lines, results first:

| h % I (1 μM) | Structure (SMILES) |
| --- | --- |
| 24% | CC(C)(C)c1ccc(CCC(=O)Nc2ccc(-n3ccnc3)c(C(F)(F)F)c2)cc1 [Cpd 264] |
| 20% | Cc1nccn1-c1ccc(NC(=O)CCc2ccc(C(F)(F)F)cc2)cc1C(F)(F)F [Cpd 267] |
| 15% | CC(C)c1nccn1-c1ccc(NC(=O)CCc2ccc(C(F)(F)F)cc2)cc1C(F)(F)F [Cpd 268] |
| 21% | O=C(CCc1ccc(C(F)(F)F)cc1)Nc1ccc(-n2ccc3ccccc32)c(C(F)(F)F)c1 [Cpd 269] |
| 26% | COC(=O)c1cn(-c2ccc(NC(=O)CCc3ccc(C(F)(F)F)cc3)cc2C(F)(F)F)cn1 [Cpd 271] |

same assay, conditions: inhibition of capsaicin response, 1 μM; read-out: h % I (1 μM)

| inhibition at 1 µM | Structure (SMILES) |
| --- | --- |
| 18% | O=C(CCc1ccc(C(F)(F)F)cc1)Nc1ccc(-c2noc(C(F)(F)F)n2)c(C(F)(F)F)c1 [Cpd 265, 3-(4-Trifluoromethyl-phenyl)-N-[3-trifluoromethyl-4-(5-trifluoromethyl-[1,2,4]oxadiazol-3-yl)-phenyl]-propionamide] |
| 47% | Cc1nc(-c2ccc(NC(=O)CCc3ccc(C(F)(F)F)cc3)cc2C(F)(F)F)no1 [Cpd 266, N-[4-(5-Methyl-[1,2,4]oxadiazol-3-yl)-3-trifluoromethyl-phenyl]-3-(4-trifluoromethyl-phenyl)-propionamide] |

| Structure (SMILES) | inhibition at 1 µM |
| --- | --- |
| O=C(CCc1ccc(C(F)(F)F)cc1)Nc1ccc(-n2cnc3c2CCCC3)c(C(F)(F)F)c1 [Cpd 270, N-[4-(4,5,6,7-Tetrahydro-benzoimidazol-1-yl)-3-trifluoromethyl-phenyl]-3-(4-trifluoromethyl-phenyl)-propionamide] | 47% |

same assay, conditions: inhibition of capsaicin response, 5 μM

| h % I (5 μM) | Structure (SMILES) |
| --- | --- |
| 48% | CC(C)(C)c1ccc(CCC(=O)Nc2ccc(-n3ccnc3)c(C(F)(F)F)c2)cc1 [Cpd 264] |

same assay, conditions: inhibition of capsaicin response, 5 μM; read-out: h % I (5 μM)

| inhibition at 5 µM | Structure (SMILES) |
| --- | --- |
| 90% | COc1cccc(-c2ncc(NC(=O)CCc3ccc(C(C)(C)C)cc3)cc2C)c1 [Cpd 259] |
| 63% | O=C(CCc1ccc(C(F)(F)F)cc1)Nc1ccc(-c2noc(C(F)(F)F)n2)c(C(F)(F)F)c1 [Cpd 265, 3-(4-Trifluoromethyl-phenyl)-N-[3-trifluoromethyl-4-(5-trifluoromethyl-[1,2,4]oxadiazol-3-yl)-phenyl]-propionamide] |
| 64% | Cc1nc(-c2ccc(NC(=O)CCc3ccc(C(F)(F)F)cc3)cc2C(F)(F)F)no1 [Cpd 266, N-[4-(5-Methyl-[1,2,4]oxadiazol-3-yl)-3-trifluoromethyl-phenyl]-3-(4-trifluoromethyl-phenyl)-propionamide] |
